From paper PMC8155856, “Synthesis and Characterization of Radiogallium-Labeled Cationic Amphiphilic Peptides as Tumor Imaging Agents” (Cancers, 2021) come the findings set out here.

In series [1] the test system is KB cells. Kind of series: Cellular uptake of FITC-CAPs. Particulars: 1 μM, 37 °C, 2 h post-incubation, heparin/PBS wash, lysate fluorescence; mean ± SEM, n = 7–13. The series is classed as cell-based. As for the experimental part: (§1) Epidermoid carcinoma KB cells were provided by DS Pharma Biomedical Co., Ltd. (Suita, Japan). Mouse fibroblast-like 3T3-L1 cells were obtained from the JCRB Cell Bank (Tokyo, Japan). KB cells were cultured in Eagle’s minimal essential medium supplemented with 10% fetal bovine serum. The 3T3-L1 cells were grown in Dulbecco’s modified Eagle’s medium supplemented with 10% bovine calf serum. All media were supplemented with 100 IU/mL penicillin and 100 μg/mL streptomycin. The cells were maintained in a humidified atmosphere containing 5% CO2 at 37 °C.
(§2) Each cell line was grown to confluence in a 12-well plate and washed with PBS. FITC-CAPs (1 μM) or ^67Ga-NOTA-CAPs (1.0 kBq) (Figure S2C) in a growing medium (0.6 mL) were added to each cell and incubated at 37 °C for each time point. After incubation, the cells were washed twice with 20 units of heparin/PBS (0.5 mL) and lysed using cell lysis buffer M from Fujifilm Wako (Osaka, Japan) at 37 °C for 20 min. The radioactivity and fluorescence of the lysates was measured using a gamma counter and fluorescence microplate reader, respectively, and the protein concentration was determined using a Bradford protein assay kit (Bio-Rad, Hercules, CA, USA). Data are expressed as percentage uptake per milligram of protein (% uptake/mg protein).

For series [2], the system named is KB cells. Kind of series: Confocal fluorescence microscopic imaging of FITC-CAPs. It counts as cell-based. Particulars: 10 µM, 1 h, confocal laser scanning microscope. As for the experimental part: (§3) KB and 3T3-L1 cells were cultured on 8-well chambered cover glasses (Iwaki, Tokyo, Japan) and incubated with FITC-CAPs (10 μM) for 1 h. The medium was removed and cells were washed twice with ice-cold PBS containing heparin (20 units/mL) and twice with ice-cold PBS. Subsequently, the cells were incubated with Hoechst 33342 (2.5 µg/mL) for 30 min and then washed twice with ice-cold PBS. Fluorescent images were captured using a confocal laser scanning microscope (LSM710, Carl Zeiss Inc., Jena, Germany) with excitation wavelengths of 405 nm (UV laser) for Hoechst 33342 and 488 nm (Ar laser) for FITC-CAPs.

Series [3] deals with 3T3-L1 cells. Briefly: Cellular uptake of FITC-CAPs. The series is classed as cell-based, mouse. The conditions noted are these: 1 μM; for Difference in FITC-CAP uptake between KB and 3T3-L1 cells (specificity for cancer cells): 2 h, ANOVA with Tukey's test. As for the experimental part:
as §1, §2

The subject of series [4] is 3T3-L1 cells. Briefly: Confocal fluorescence microscopic imaging of FITC-CAPs. It counts as cell-based, mouse. The conditions noted are these: 10 µM, 1 h, confocal laser scanning microscope. As for the experimental part:
as §3

Series [5] is described as follows: Biodistribution in tumor-bearing mice. Particulars: female, BALB/c nu/nu, mouse, iv, 10 kBq/100 uL, total radioactivity.
Method: (§4) BALB/c nu/nu mice (female; 4 weeks old) were supplied by Japan SLC Inc. (Shizuoka, Japan). The mice were maintained in a room at a constant ambient temperature and a 12/12 h light/dark cycle, and they were given free access to food and water. Mice were subcutaneously injected on their right shoulders with approximately 1.0 × 10^7 KB cells. The tumors were allowed to reach 300–500 mm^3 (1‒2 weeks after inoculation) before biodistribution studies were performed.
(§5) The ^67Ga-NOTA-CAPs (10 kBq/100 μL) were intravenously injected into the mice via the tail vein. The mice were sacrificed at the designated time intervals, and the organs were dissected. The tissues were then weighed, and radioactivity was measured by automated gamma counting (n = 5).
For series [6], the system named is KB tumor-bearing mice. Kind of series: Biodistribution in tumor-bearing mice. The conditions noted are these: 30 min after administration, KB xenograft, i.v.; mean (SD) of 4–6 mice.
Method: as §4, §5
The nature of series [7]: In vitro stability in mouse plasma. Particulars: freshly prepared mouse plasma, 37 °C, 1 h, 10 μL tracer + 90 μL plasma, CH3CN precipitation, HPLC; mean (SEM) of three experiments.
Method: The in vitro stability of ^67Ga-NOTA-CAPs in phosphate-buffered saline (PBS) and mouse plasma was analyzed according to a previously reported procedure [29, 30, 31]. In brief, each radiotracer (10 μL; 2.0–3.0 MBq) was added to PBS (90 μL) and incubated at 37 °C for 24 h or to freshly prepared mouse plasma (90 μL) and incubated at 37 °C for 1 h. […] The mouse plasma solution was added to ice-cold CH3CN (300 μL) and centrifuged at 9400 rcf for 4 min. The supernatant was filtered through a 0.22 μm membrane before HPLC analysis.
Series [8] in a line: in vivo. The conditions noted are these: female, BALB/c nu/nu, mouse, iv, 10 kBq/100 uL, total radioactivity.
Method: as §4, §5
The test system of series [9] is KB tumor-bearing mice. Particulars: mouse, in vivo.
Method: as §4, §5

The structures appear in SMILES notation. Non-standard residues stand in square brackets, D forms with d. Residues, ends and D or L forms follow the SMILES beside them. *: point of attachment. FITC = O=C1OC2(c3ccc(O)cc3Oc3cc(O)ccc32)c2ccc(NC(=S)*)cc21; NOTA = O=C(O)CN1CCN(CC(=O)O)CCN(CC(=O)*)CC1; Ahx = NCCCCCC(=O)O

Take `CC(C)[C@H](NC(=O)[C@H](Cc1c[nH]cn1)NC(=O)[C@@H](NC(=O)[C@H](Cc1c[nH]cn1)NC(=O)[C@@H](NC(=O)[C@H](Cc1c[nH]cn1)NC(=O)[C@@H](NC(=O)[C@@H]1CCCN1C(=O)[C@H]1CCCN1C(=O)[C@@H](NC(=O)[C@H](Cc1c[nH]cn1)NC(=O)[C@@H](NC(=O)[C@H](Cc1c[nH]cn1)NC(=O)[C@@H](NC(=O)[C@H](Cc1c[nH]cn1)NC(=O)[C@@H](NC(=O)[C@H](Cc1c[nH]cn1)NC(=O)CCCCCNC(=S)Nc1ccc2c(c1)C(=O)OC21c2ccc(O)cc2Oc2cc(O)ccc21)C(C)C)C(C)C)C(C)C)C(C)C)[C@@H](C)O)C(C)C)C(C)C)C(=O)N[C@@H](Cc1c[nH]cn1)C(N)=O` [FITC-HV6] ({FITC-Ahx}-HVHVHVHV[dP]PTHVHVHVH-NH2): the “Cellular uptake of FITC-CAPs into KB cells” value in series [1] was 19.0% ± 0.94 % uptake/mg protein. Also, the “Cellular localization in KB cells” value in series [2] was “also accumulated in the cytoplasm and nucleus”. For the same molecule, the “Difference in FITC-CAP uptake between KB and 3T3-L1 cells (specificity for cancer cells)” value in series [3] is given as “high selectivity for cancer cells”. Besides, the “Fluorescence signal in 3T3-L1 cells” value in series [4] is “low fluorescence signals”.

One may read the tissue uptake as the share of the injected amount in each gram of the tissue. In the case of `CC(C)[C@H](NC(=O)[C@H](CCCNC(=N)N)NC(=O)[C@@H](NC(=O)[C@H](CCCNC(=N)N)NC(=O)[C@@H](NC(=O)[C@H](CCCNC(=N)N)NC(=O)[C@@H](NC(=O)[C@@H]1CCCN1C(=O)[C@H]1CCCN1C(=O)[C@@H](NC(=O)[C@H](CCCNC(=N)N)NC(=O)[C@@H](NC(=O)[C@H](CCCNC(=N)N)NC(=O)[C@@H](NC(=O)[C@H](CCCNC(=N)N)NC(=O)[C@@H](NC(=O)[C@H](CCCNC(=N)N)NC(=O)CN1CCN(CC(=O)O)CCN(CC(=O)O)CC1)C(C)C)C(C)C)C(C)C)C(C)C)[C@@H](C)O)C(C)C)C(C)C)C(=O)N[C@@H](CCCNC(=N)N)C(N)=O` [^67Ga-NOTA-RV6, metal not drawn] ({NOTA}-RVRVRVRV[dP]PTRVRVRVR-NH2), the tissue uptake at 2 h came out at 26.9 %ID/g in [5] (kidney) and 53.8 %ID/g in [5] (liver). Further, the tissue to tissue ratio at 2 h in series [5] (tumor/blood) stood at 8; in [5] (tumor/muscle), 3.35 ± 0.64. For the same molecule, the Tumor uptake in [6] is 4.76% ± 1.50 % ID/g. In addition, the “In vitro stability in mouse plasma, percentage of remaining intact radiotracer” value in series [7] is listed as 27.4 (2.94) %.

Consider `CC(C)[C@H](NC(=O)[C@H](Cc1c[nH]cn1)NC(=O)[C@@H](NC(=O)[C@H](Cc1c[nH]cn1)NC(=O)[C@@H](NC(=O)[C@H](Cc1c[nH]cn1)NC(=O)[C@@H](NC(=O)[C@@H]1CCCN1C(=O)[C@H]1CCCN1C(=O)[C@@H](NC(=O)[C@H](Cc1c[nH]cn1)NC(=O)[C@@H](NC(=O)[C@H](Cc1c[nH]cn1)NC(=O)[C@@H](NC(=O)[C@H](Cc1c[nH]cn1)NC(=O)[C@@H](NC(=O)[C@H](Cc1c[nH]cn1)NC(=O)CN1CCN(CC(=O)O)CCN(CC(=O)O)CC1)C(C)C)C(C)C)C(C)C)C(C)C)[C@@H](C)O)C(C)C)C(C)C)C(=O)N[C@@H](Cc1c[nH]cn1)C(N)=O` [^67Ga-NOTA-HV6, metal not drawn] ({NOTA}-HVHVHVHV[dP]PTHVHVHVH-NH2), for which the tissue uptake at 2 h in series [5] (kidney) came to 23 %ID/g. For the same molecule, the tissue to tissue ratio at 2 h in series [5] (tumor/blood) came to 3.8; in series [5] (tumor/muscle), 4.01 ± 2.05. In addition, in series [6], the Tumor uptake is recorded as 3.18% ± 0.36 % ID/g. Further, the “In vitro stability in mouse plasma, percentage of remaining intact radiotracer” value in series [7] is 23.3 (0.75) %.

As for `CC(C)[C@H](NC(=O)[C@H](CCCNC(=N)N)NC(=O)[C@@H](NC(=O)[C@H](CCCNC(=N)N)NC(=O)[C@@H](NC(=O)[C@H](CCCNC(=N)N)NC(=O)[C@@H](NC(=O)[C@@H]1CCCN1C(=O)[C@H]1CCCN1C(=O)[C@@H](NC(=O)[C@H](CCCNC(=N)N)NC(=O)[C@@H](NC(=O)[C@H](CCCNC(=N)N)NC(=O)[C@@H](NC(=O)[C@H](CCCNC(=N)N)NC(=O)[C@@H](NC(=O)[C@H](CCCNC(=N)N)NC(=O)CCCCCNC(=S)Nc1ccc2c(c1)C(=O)OC21c2ccc(O)cc2Oc2cc(O)ccc21)C(C)C)C(C)C)C(C)C)C(C)C)[C@@H](C)O)C(C)C)C(C)C)C(=O)N[C@@H](CCCNC(=N)N)C(N)=O` [FITC-RV6] ({FITC-Ahx}-RVRVRVRV[dP]PTRVRVRVR-NH2), the “Cellular uptake of FITC-CAPs into KB cells” value in series [1] is on record as 36.0% ± 2.63 % uptake/mg protein. Also, the “Cellular localization in KB cells” value in series [2] is “also accumulated in the cytoplasm and nucleus”. In addition, the “Cellular uptake of FITC-CAPs into 3T3-L1 cells” value in series [3] (37 °C, 2 h post-incubation, heparin/PBS wash, lysate fluorescence, mean ± SEM, n = 7–13) is listed as 26.6% ± 2.18 % uptake/mg protein. Moreover, the “Difference in FITC-CAP uptake between KB and 3T3-L1 cells (specificity for cancer cells)” value in series [3] is “low specificity for cancer cells”. Further, the “Fluorescence signal in 3T3-L1 cells” value in series [4] is “strong fluorescence signals”.

Take `CC(C)[C@H](NC(=O)[C@H](CCCCN)NC(=O)[C@@H](NC(=O)[C@H](CCCCN)NC(=O)[C@@H](NC(=O)[C@H](CCCCN)NC(=O)[C@@H](NC(=O)[C@@H]1CCCN1C(=O)[C@H]1CCCN1C(=O)[C@@H](NC(=O)[C@H](CCCCN)NC(=O)[C@@H](NC(=O)[C@H](CCCCN)NC(=O)[C@@H](NC(=O)[C@H](CCCCN)NC(=O)[C@@H](NC(=O)[C@H](CCCCN)NC(=O)CN1CCN(CC(=O)O)CCN(CC(=O)O)CC1)C(C)C)C(C)C)C(C)C)C(C)C)[C@@H](C)O)C(C)C)C(C)C)C(=O)N[C@@H](CCCCN)C(N)=O` [^67Ga-NOTA-KV6, metal not drawn] ({NOTA}-KVKVKVKV[dP]PTKVKVKVK-NH2): the tissue uptake at 2 h was determined as 118 %ID/g in series [5] (kidney) and 32.6 %ID/g in series [8]. Also, the tissue to tissue ratio at 2 h was 7.7 in [5] (tumor/blood) and 5.05 ± 1.51 in series [5] (tumor/muscle). Besides, in [6], the Tumor uptake is reported as 4.46% ± 0.58 % ID/g. The “Tumor-to-blood ratio compared among tracers” value in series [9] is listed as “significantly higher”. The “Tumor-to-muscle ratio compared among tracers” value in series [9] is on record as “significantly greater”.
